“Also recorded” adds a separate entry of the source.
Key:
[1] = system: XccR binding to the luxXc box; test: EMSA: effect of sugars on binding of XccR to the luxXc box; conditions: XccR-MBP, increasing sugar concentrations (glucose 0.005-5 μM)
[2] = system: pip promoter (Xcc 8008, pip-GUS reporter); format: cell-based, Xanthomonas campestris pv. campestris
XccR-SUMO = target: T1, XccR-SUMO (Xanthomonas campestris pv. campestris, UniProt B0RQF7); test: MST binding of glucose to XccR-SUMO
T1 sequence (B0RQF7 1-272): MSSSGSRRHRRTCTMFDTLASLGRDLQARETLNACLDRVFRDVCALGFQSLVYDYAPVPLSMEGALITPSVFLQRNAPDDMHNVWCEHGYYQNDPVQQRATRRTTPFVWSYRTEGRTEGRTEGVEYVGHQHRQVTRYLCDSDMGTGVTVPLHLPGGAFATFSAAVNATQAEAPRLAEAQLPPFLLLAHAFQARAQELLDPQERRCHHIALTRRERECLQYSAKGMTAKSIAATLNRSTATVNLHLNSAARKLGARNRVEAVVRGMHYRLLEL

LasR = target: T2, LasR (Pseudomonas aeruginosa, UniProt P25084); test: MST LasR–glucose interaction; format: binding; conditions: Figure S7d
T2 sequence (P25084 1-239): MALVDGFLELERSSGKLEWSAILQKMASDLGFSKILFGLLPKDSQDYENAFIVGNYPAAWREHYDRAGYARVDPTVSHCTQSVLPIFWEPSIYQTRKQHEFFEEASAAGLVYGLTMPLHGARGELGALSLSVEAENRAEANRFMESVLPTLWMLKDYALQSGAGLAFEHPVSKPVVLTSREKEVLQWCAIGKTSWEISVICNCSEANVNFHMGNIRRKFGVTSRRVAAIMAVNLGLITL

TraR = target: T3, TraR (Agrobacterium tumefaciens, UniProt P33905); test: MST TraR–glucose interaction; format: binding; conditions: Figure S7c
T3 sequence (P33905 1-234): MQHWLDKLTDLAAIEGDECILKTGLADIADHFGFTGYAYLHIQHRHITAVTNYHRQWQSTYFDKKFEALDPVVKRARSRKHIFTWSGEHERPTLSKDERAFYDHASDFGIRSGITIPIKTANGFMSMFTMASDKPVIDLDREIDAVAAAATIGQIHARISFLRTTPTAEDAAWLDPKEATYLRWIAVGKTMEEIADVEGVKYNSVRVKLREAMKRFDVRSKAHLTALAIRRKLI

[3] = system: pip promoter (Xcc 8008 reporter strain); format: in vivo, Xanthomonas campestris pv. campestris in Arabidopsis; conditions: Atsweet2‐3‐2 and Atsweet15‐4‐7 mutant plants, bacterial suspension supplemented with glucose before infection
XccR-MBP [4] = target: T4, XccR-MBP (Xanthomonas campestris pv. campestris, UniProt B0RQF7); test: Isothermal titration calorimetry of XccR-MBP with glucose; format: binding; conditions: XccR-MBP 10 μM titrated with 100 μM glucose
T4 sequence (B0RQF7 1-272): T1 sequence (B0RQF7 1-272)

XccR-MBP [5] = target: T4, XccR-MBP; test: Microscale thermophoresis

O=CC[C@@H](O)[C@H](O)[C@H](O)CO [2‐deoxyglucose, 2‐deoxy‐D‐glucose, reference compound]
Effect on binding of XccR to the luxXc box [1]: enhanced
GUS activity driven by the pip promoter [2]: promoted

O=C(CO)[C@@H](O)[C@H](O)[C@H](O)CO [fructose]
Effect on binding of XccR to the luxXc box [1]: did not enhance

O=C[C@H](O)[C@@H](O)[C@H](O)[C@H](O)COP(=O)(O)O [glucose 6‐phosphate, D‐glucose 6‐phosphate]
Effect on binding of XccR to the luxXc box [1]: did not enhance

OC[C@H]1OC(O)[C@H](O)[C@@H](O)[C@@H]1O (stereo partly shown) [glucose, D‐glucose]
Kd (XccR-SUMO): 242 nM
LasR–glucose binding (LasR): did not bind
Effect on binding of XccR to the luxXc box [1]: enhanced
TraR–glucose interaction (TraR): did not interact
pip promoter-driven GUS activity in planta [3]: restored to the wild‐type level
GUS activity driven by the pip promoter [2]: increase; also recorded: promoted
Binding of XccR with glucose by ITC (XccR-MBP [4]): supported by the ITC results
Kd (XccR-MBP [5]): 252 nM

OC[C@H]1O[C@@](CO)(O[C@H]2O[C@H](CO)[C@@H](O)[C@H](O)[C@H]2O)[C@@H](O)[C@@H]1O [sucrose]
Effect on binding of XccR to the luxXc box [1]: did not enhance

Reference: PMC10013830 (Molecular Plant Pathology, 2023)
